One test addresses T1, SrcAbl SH3 (Homo sapiens, UniProt P12931, D120E/E100D/E118N/E96V/R98S/S97A/T101N/T117H/T99G).
T1 construct: His6-SUMO (N, cleaved yes); made in house; host or cells: Escherichia coli BL21 DE3
As to the kind of experiment: Fluorescence anisotropy binding, SrcAbl SH3 chimera (Src SH3 with Abl RT and nSrc loops). Conditions: 30 nM fluorescent peptide, running buffer + 0.1 mg/mL BSA + 0.5 mM Thesit, average of triplicate experiments. (In general: Polarisation of emitted light reports the rotation of a fluorescent probe.)

A further test addresses T2, W122C SrcAbl SH3 (Homo sapiens, UniProt P12931, D120E/E100D/E118N/E96V/R98S/S97A/T101N/T117H/T99G/W122C).
T2 construct: His6-SUMO (N, cleaved yes); made in house; host or cells: Escherichia coli BL21 DE3
The test can be described thus: Fluorescence anisotropy binding, W122C SrcAbl SH3. Conditions: 30 nM fluorescent peptide, running buffer + 0.1 mg/mL BSA + 0.5 mM Thesit, average of triplicate experiments. The text has this:
(§1) Therefore, we wanted to engineer chimeric proteins to test if these loops alone could mediate specificity switching. In our chimeras, we swapped both the RT (sequence: ^96ESRTET^101) and nSrc (^117TEGD^120) loops of Src with the RT (^73VASGDN^78) and nSrc (^95HNGE^98) loop sequences of Abl, and vice versa in each SH3 domain. We termed the resulting proteins, SrcAbl and AblSrc, where the subscript indicates the sequence identity of both the RT and nSrc loops.
(§2) Sequences corresponding to the Abl and Src SH3 (residues 84-145, UniProt ID SRC_HUMAN) domains were used for the wild-type SH3 domains. All proteins were expressed as His6-SUMO fusion proteins using the pET28a (+) plasmid (Genscript). […]
(§3) Briefly, plasmids were transformed into BL21 DE3 chemically competent Escherichia coli cells. […] SDS-PAGE was used to assess protein purity and the absorbance at λ = 280 nm with the calculated extinction coefficient (s), by Expasy ProtParam, was used to calculate protein concentration ([Wilkins et al., 1999]).
(§4) Fluorescence anisotropy assays were performed using a BioTek Synergy H1 plate reader, as previously described [([Tahti et al., 2023]; [Gao et al., 2020]; [Wofford et al., 2021]; [Valgardson et al., 2019])]. […] Determined K D values were the average calculated from triplicate experiments ([Cushing et al., 2008]). […]

Test [1] addresses T3, Abl SH3 (Homo sapiens, UniProt P00519).
T3 construct: His6-SUMO (N, cleaved yes); made in house; host or cells: Escherichia coli BL21 DE3
As to the kind of experiment: Fluorescence anisotropy binding, Abl SH3. Conditions: 30 nM fluorescent peptide, running buffer + 0.1 mg/mL BSA + 0.5 mM Thesit, average of triplicate experiments.
Source text: (§5) Sequences corresponding to the Abl and Src SH3 (residues 84-145, UniProt ID SRC_HUMAN) domains were used for the wild-type SH3 domains. All proteins were expressed as His6-SUMO fusion proteins using the pET28a (+) plasmid (Genscript). Expression and purification protocols were similar to those used previously for other SLiM-binding domains [([Tahti et al., 2023]; [Gao et al., 2020]; [Wofford et al., 2021])]. All sequences used are in the Supporting Information.
(§6) Briefly, plasmids were transformed into BL21 DE3 chemically competent Escherichia coli cells. Selected colonies were grown in Terrific Broth (TB) at 37°C with shaking at 210 rpm. Once an optical density (OD) of 0.6–0.8 at λ = 600 nm was reached, protein expression was induced by the addition of 0.15 mM isopropyl-β-D-1-thiogalactopyranoside (IPTG) for 16–18 h at 18°C. […] SDS-PAGE was used to assess protein purity and the absorbance at λ = 280 nm with the calculated extinction coefficient (s), by Expasy ProtParam, was used to calculate protein concentration ([Wilkins et al., 1999]).
as §4

Another test has as its target T4, AblSrc SH3 (Homo sapiens, UniProt P00519, A74S/D77E/E98D/G76T/H95T/N78T/N96E/S75R/V73E).
T4 construct: His6-SUMO (N, cleaved yes); made in house; host or cells: Escherichia coli BL21 DE3
T4 sequence (P00519 61-121 V73E/A74S/S75R/G76T/D77E/N78T/H95T/N96E/E98D limits assumed): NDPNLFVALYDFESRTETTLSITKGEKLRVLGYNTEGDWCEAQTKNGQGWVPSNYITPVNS
The test can be described thus: Fluorescence anisotropy binding, AblSrc SH3 chimera (Abl SH3 with Src RT and nSrc loops). Conditions: 30 nM fluorescent peptide, running buffer + 0.1 mg/mL BSA + 0.5 mM Thesit, average of triplicate experiments, >1,000 = undetectable.
Source text: as §1, §2, §3, §4

The next test has as its target T5, C100W Abl SH3 (Homo sapiens, UniProt P00519, C100W).
T5 construct: His6-SUMO (N, cleaved yes); made in house; host or cells: Escherichia coli BL21 DE3
The test can be described thus: Fluorescence anisotropy binding, C100W Abl SH3. Conditions: 30 nM fluorescent peptide, running buffer + 0.1 mg/mL BSA + 0.5 mM Thesit, average of triplicate experiments, >1,000 = undetectable.
Source text: as §5, §6, §4

For a further test, the target named is T6, Src SH3 (Homo sapiens, UniProt P12931).
T6 construct: His6-SUMO (N, cleaved yes); made in house; host or cells: Escherichia coli BL21 DE3
As to the kind of experiment: Fluorescence anisotropy binding, Src SH3. The note with it: 30 nM fluorescent peptide, running buffer + 0.1 mg/mL BSA + 0.5 mM Thesit, average of triplicate experiments, >1,000 = no binding.

For another test, the target named is T7, W122C Src SH3 (Homo sapiens, UniProt P12931, W122C).
T7 construct: His6-SUMO (N, cleaved yes); made in house; host or cells: Escherichia coli BL21 DE3
As to the kind of experiment: Fluorescence anisotropy binding, W122C Src SH3. Conditions: 30 nM fluorescent peptide, running buffer + 0.1 mg/mL BSA + 0.5 mM Thesit, average of triplicate experiments.

Test [2] deals with T3, Abl SH3. On the set-up: method as in Pisabarro and Serrano, 1996; Pisabarro et al., 1998. The note with it: Abl SH3, previously published; ref Pisabarro and Serrano, 1996; Pisabarro et al., 1998; read-out: affinity (K D); cited from earlier work.
For the next test, the target named is Fyn SH3. On the set-up: method as in Pisabarro and Serrano, 1996; Pisabarro et al., 1998. The note with it: Fyn SH3, previously published; ref Pisabarro and Serrano, 1996; Pisabarro et al., 1998; read-out: affinity (K D); cited from earlier work.

“And” between values parts separate entries of the source, which are not always exact repeats. Equal values may be shown once. Read-outs that look alike come from different tables or passages of the source. Peptide text beside a SMILES is read from it. * marks the point of attachment. FITC = O=C1OC2(c3ccc(O)cc3Oc3cc(O)ccc32)c2ccc(NC(=S)*)cc21; Ahx = NCCCCCC(=O)O

T3 sequence (P00519 61-121 limits assumed): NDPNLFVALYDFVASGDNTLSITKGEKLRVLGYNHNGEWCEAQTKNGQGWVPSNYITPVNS
T5 sequence (P00519 61-121 C100W limits assumed): as the sequence (P00519 61-121 limits assumed) above, with C40W counted along it

For `CC(C)C[C@H](NC(=O)CCCCCNC(=S)Nc1ccc2c(c1)C(=O)OC21c2ccc(O)cc2Oc2cc(O)ccc21)C(=O)N[C@@H](C)C(=O)N[C@@H](CO)C(=O)N[C@@H](CCCNC(=N)N)C(=O)N1CCC[C@H]1C(=O)N[C@@H](CC(C)C)C(=O)N1CCC[C@H]1C(=O)N[C@@H](CC(C)C)C(=O)N[C@@H](CC(C)C)C(=O)N1CCC[C@H]1C(=O)O` [F*-PLLP], the Kd was 140 ± 20 µM on SrcAbl SH3; > 1000 µM on W122C SrcAbl SH3; > 1000 µM at Abl SH3 [1]; > 1000 µM on AblSrc SH3; > 1000 µM on C100W Abl SH3.
Take `C[C@H](NC(=O)CCCCCNC(=S)Nc1ccc2c(c1)C(=O)OC21c2ccc(O)cc2Oc2cc(O)ccc21)C(=O)N1CCC[C@H]1C(=O)N[C@H](C(=O)N[C@@H](Cc1ccc(O)cc1)C(=O)N[C@@H](CO)C(=O)N1CCC[C@H]1C(=O)N1CCC[C@H]1C(=O)N1CCC[C@H]1C(=O)N1CCC[C@H]1C(=O)N1CCC[C@H]1C(=O)O)[C@@H](C)O` [F*-p40] ({FITC-Ahx}-APTYSPPPPP-OH): the Kd at Src SH3 was > 1000 µM; at SrcAbl SH3 it was 130 ± 40 µM; at W122C Src SH3 it was > 1000 µM; at W122C SrcAbl SH3, 450 ± 190 µM; at Abl SH3 [1], 3.1 ± 0.4 µM; on AblSrc SH3, 210 ± 30 µM. Also, the Kd at C100W Abl SH3 is 55 ± 20 µM.
Consider “RAPTMPPPLPP [initial ligand, derived from the 3BP1 protein]”, for which the Kd with Abl SH3 [2] and at Fyn SH3 was 30 µM each time.
In the case of `C[C@H](N)C(=O)N1CCC[C@H]1C(=O)N[C@H](C(=O)N[C@@H](Cc1ccc(O)cc1)C(=O)N[C@@H](CO)C(=O)N1CCC[C@H]1C(=O)N1CCC[C@H]1C(=O)N1CCC[C@H]1C(=O)N1CCC[C@H]1C(=O)N1CCC[C@H]1C(=O)O)[C@@H](C)O` [p40] (H-APTYSPPPPP-OH; N-terminus and C-terminus assumed), the Kd was > 1000 µM at Src SH3; 472 µM and 470 µM at Fyn SH3.

Values taken from publication PMC11653366, “The conformation of the nSrc specificity-determining loop in the Src SH3 domain is modulated by a WX conserved sequence motif found in SH3 domains” (Frontiers in Molecular Biosciences, 2024).
